Source: patent US20190282600A1, “COMBINATION THERAPIES TARGETING TERT DEPENDENCY FOR CANCER THERAPY” (The Wistar Institute of Anatomy and Biology, priority 2018, published 2019)

What was measured:
[1] = test system: NRAS mutant melanoma cells; test: Telomere dysfunction-induced foci (TIF) assay, IF-FISH; type: cell-based, Human; settings: 6-thio-dG for 7 days
Procedure: NRAS mutant melanoma cells WM3000 were transduced with TERT shRNA and treated with NAC (mM) for 7 days. […] Representative images are shown. (scale bar=10 μm). Quantification of TIF positive cells is plotted in FIG. 13b. Cells were scored as TIF positive when three or more g-H2AX foci (green) were co-localizing with telomere foci (red). Data represent average of thirteen fields imaged +/−SD.
NRAS^mut melanoma cells were treated with 6-thio-dG for 6, 12 or 18 days. As presented in FIG. 15a, relative cell number was assessed by Crystal Violet assay and calculated relative to DMSO-treated cells. Data represent average of three independent experiments +/−SD. […] NRAS^mut cells were treated with 6-thio-dG for 7 days and telomere induced foci (TIF) was determined by indirect immunofluorescence combined with fluorescence in situ hybridization (FISH) (FIG. 15c). […] Quantification of TIF assay is plotted in FIG. 15d. Cells were scored as TIF positive when four or more γ-H2AX foci (green, center row of FIG. 15c labelled as γH2AX) were co-localizing with telomere foci (red, top row of FIG. 15c labelled as Telomeres). […] P values were calculated by unpaired Student's t-test.
For TIF analysis, indirect immunofluorescence (IF) combined with fluorescence in situ hybridization (FISH) was performed as previously described with some modifications. […] TIF were quantified from at least three independent experiments.

[2] = test system: NRAS mutant tumors (WM3000, M93-047); test: NRAS mutant melanoma xenograft tumors in mice; type: in vivo; settings: for tumor growth: 6-Thio-dG 2.5 mg/kg i.p. q.d., single agent
Procedure: FIGS. 2a to 2c show NRAS^mut melanoma cells (FIG. 2a), BRAF-V600E/NRAS mutant cells derived from melanoma patients resistant to BRAF/MEK inhibitors (FIG. 2b), or non-transformed melanocytes and fibroblasts (FIG. 2c) were treated with 6-thio-dG for 7 days. Cell viability was measured by Alamar Blue assay and calculated relative to DMSO-treated cells. […] Cell death was assessed by PSVUe staining. Percent of apoptotic cells is shown. […] Mean TRF length expressed as kilobase pairs is indicated at the bottom. […] FIG. 2g provides a bar graph showing that DNA damage was assessed by γH2AX staining. Data represent average from three independent experiments ±SEM. *p<0.05; **p<0.01; ***p<0.005 in unpaired Student's t-test. As presented in FIG. 2h, mice bearing established WM3000 or M93-047 NRAS^mut tumors were treated with vehicle control or 6-thio-dG (2.5 mg/kg i.p; q.d). Tumor volume was measured and average tumor volume (n=4) ±SEM was plotted vs. time.
FIGS. 6a to 6e provide results showing that combining 6-thio-dG and Gamitrinib inhibits the growth of 3D melanoma spheroids and NRAS-mutant xenograft tumors. Collagen-embedded melanoma spheroids were treated with DMSO, 6-thio-dG (5 μM) and Gam (5 μM) as in FIGS. 4a to 4e. On day 7, spheroids were stained with Calcein AM (live cells; green) and EtBr (dead cells; red) and imaged using an inverted microscope (4X; scale bar=250 μm). […] P values were calculated using unpaired Student's t-test. *p<0.05, ** p<0.01, ***p<0.005, when comparing vehicle control vs. combination treatment groups. […] Kaplan Meier survival curves of mice treated for 14 days. p-values were calculated by Mantel-Cox log-rank test; *p<0.05, **p<0.01, ***p<0.005. Animal weight (grams) before treatment (Start of TX) and at the end of the study (End of TX) was assessed, recorded for every mouse enrolled in the study and plotted in FIG. 6e. […] Statistical significance was assessed by unpaired Student's t-test.
All animal experiments were performed in accordance with institutional guidelines. […] Tumor growth was measured twice weekly with digital calipers. […]

Nc1nc2c(ncn2[C@H]2C[C@H](O)[C@@H](CO)O2)c(=S)[nH]1 [6-thio-dG, 6-thio-2′-deoxyguanosine]
TIFs [1]: increased levels
tumor growth [2]: slowed, but did not completely abrogated tumor growth
tumor growth ([2]; listed as 6-Thio-dG): slowed the growth of tumors
reduction in tumor volume ([2]; 6-Thio-dG 2.5 mg/kg, after 14 days of treatment): approximately 50%
